Test results: patent publication US20230265116A1, “DEGRADATION OF (EGFR) BY CONJUGATION OF EGFR INHIBITORS WITH E3 LIGASE LIGAND AND METHODS OF USE” (BEIGENE, LTD., priority 2020, published 2023)

How the values were obtained:
[1] = target: T1, EGFR L858R/T790M/C797S (BaF3-LTC cells) (Homo sapiens, UniProt P00533, C797S/L858R/T790M); assay: EGFR degradation HTRF assay, BaF3-LTC cells; type: cell-based; conditions: BaF3-LTC cells; for DC50: EGFR degradation, IC50 (DC50) from curve fit, read-out: DC50(nM) BaF3-LTC; for Dmax: maximum percentage of inhibition (degradation), read-out: Dmax (%) BaF3-LTC
T1 construct: expressed in transfected cells; host or cells: BaF3
T1 sequence (P00533 25-1210 T790M/C797S/L858R): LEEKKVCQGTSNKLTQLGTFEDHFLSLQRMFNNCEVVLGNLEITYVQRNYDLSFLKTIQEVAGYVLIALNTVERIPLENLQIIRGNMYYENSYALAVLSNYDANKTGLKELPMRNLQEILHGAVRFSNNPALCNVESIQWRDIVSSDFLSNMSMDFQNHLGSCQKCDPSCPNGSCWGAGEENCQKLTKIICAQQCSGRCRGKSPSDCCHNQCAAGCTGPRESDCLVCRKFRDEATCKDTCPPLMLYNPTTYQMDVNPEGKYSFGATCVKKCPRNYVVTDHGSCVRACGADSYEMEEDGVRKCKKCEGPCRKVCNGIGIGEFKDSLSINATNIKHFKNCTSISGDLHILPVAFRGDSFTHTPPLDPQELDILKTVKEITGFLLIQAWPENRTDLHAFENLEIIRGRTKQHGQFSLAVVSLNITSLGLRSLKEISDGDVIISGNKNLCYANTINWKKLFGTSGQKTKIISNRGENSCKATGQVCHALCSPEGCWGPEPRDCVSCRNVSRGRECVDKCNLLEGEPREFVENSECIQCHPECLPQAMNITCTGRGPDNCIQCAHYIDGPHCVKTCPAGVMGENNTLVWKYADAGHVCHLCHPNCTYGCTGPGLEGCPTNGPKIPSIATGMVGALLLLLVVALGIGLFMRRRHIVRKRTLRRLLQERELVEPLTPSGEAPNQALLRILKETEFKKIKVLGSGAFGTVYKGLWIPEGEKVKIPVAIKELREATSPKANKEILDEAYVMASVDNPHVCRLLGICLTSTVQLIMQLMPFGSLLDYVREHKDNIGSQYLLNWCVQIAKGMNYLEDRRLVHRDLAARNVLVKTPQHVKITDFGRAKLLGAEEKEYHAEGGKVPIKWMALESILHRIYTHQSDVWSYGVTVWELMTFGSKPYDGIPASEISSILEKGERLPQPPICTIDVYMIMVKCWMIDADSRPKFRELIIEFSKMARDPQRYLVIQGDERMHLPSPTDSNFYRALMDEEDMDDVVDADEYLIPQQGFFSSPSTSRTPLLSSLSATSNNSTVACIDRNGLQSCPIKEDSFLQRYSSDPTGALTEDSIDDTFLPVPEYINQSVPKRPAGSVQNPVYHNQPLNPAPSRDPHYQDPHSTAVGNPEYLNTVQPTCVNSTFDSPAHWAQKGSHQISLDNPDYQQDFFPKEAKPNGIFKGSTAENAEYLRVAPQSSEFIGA
How it was run: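 EGFR remaining after a 16 h, 37 °C exposure (8 doses, 5-fold steps from 10 uM final, 0.2% DMSO) was quantified by HTRF antibodies in cell lysate. Percent inhibition relative to DMSO control was fitted by four-parameter logistic to give DC50; Dmax denotes maximal degradation.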

[2] = system: EGFR Del19/T790M/C797S (H1975-clone #28); assay: EGFR degradation HTRF assay, H1975-clone #28 DTC cells; type: cell-based; conditions: H1975 # 28 DTC cells; for DC50: EGFR degradation, IC50 (DC50) from curve fit, read-out: DC50(nM) H1975 # 28 DTC; for Dmax (%) H1975 # 28 DTC: maximum percentage of inhibition (degradation)
How it was run: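 Lentiviral Del19/T790M/C797S (clone #28) or Del19/C797S (clone #23) EGFR expressed in H1975 with endogenous EGFR knocked out. Cells treated 16 h, 37 °C, 8 doses, 5-fold from 10 uM top, 0.2% DMSO; EGFR read by HTRF after lysis. Degradation % vs DMSO control; DC50, Dmax from four-parameter fit.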

CCc1cc(Nc2ncc(Br)c(Nc3ccc4nc(C)ccc4c3P(C)(C)=O)n2)c(OC)cc1N1CCC(N2CCN(CCC3CN(c4cccc5c4CN(C4CCC(=O)NC4=O)C5=O)C3)CC2)CC1 (centres unmarked) [Example 692, 3-(4-(3-(2-(4-(1-(4-((5-bromo-4-((5-(dimethylphosphoryl)-2-methylquinolin-6-yl)amino)pyrimidin-2-yl)amino)-2-ethyl-5-methoxyphenyl)piperidin-4-yl)piperazin-1-yl)ethyl)azetidin-1-yl)-1-oxoisoindolin-2-yl)piperidine-2,6-dione]
DC50 [1]: 6.68 nM | Dmax [1]: 91.4% | DC50 [2]: 0.593 nM | Dmax (%) H1975 # 28 DTC [2]: 73%

CCc1cc(Nc2ncc(Br)c(Nc3ccc4nc(C)ccc4c3P(C)(C)=O)n2)c(OC)cc1N1CCC(N2CCN(CCc3cc(F)c(C4CCC(=O)NC4=O)c(F)c3)[C@@H](C)C2)CC1 (stereo partly drawn) [Example 693, 3-(4-(2-((S)-4-(1-(4-((5-bromo-4-((5-(dimethylphosphoryl)-2-methylquinolin-6-yl)amino)pyrimidin-2-yl)amino)-2-ethyl-5-methoxyphenyl)piperidin-4-yl)-2-methylpiperazin-1-yl)ethyl)-2,6-difluorophenyl)piperidine-2,6-dione]
DC50 [1]: 13.8 nM | Dmax [1]: 84.5% | DC50 [2]: 0.812 nM | Dmax (%) H1975 # 28 DTC [2]: 66.27%

CCc1cc(Nc2ncc(Br)c(Nc3ccc4nc(C)ccc4c3P(C)(C)=O)n2)c(OC)cc1N1CCC(N2CCN(C3CCN(c4cc(F)c(C5CCC(=O)NC5=O)c(F)c4)CC3)CC2)CC1 (centres unmarked) [Example 694, 3-(4-(4-(4-(1-(4-((5-bromo-4-((5-(dimethylphosphoryl)-2-methylquinolin-6-yl)amino)pyrimidin-2-yl)amino)-2-ethyl-5-methoxyphenyl)piperidin-4-yl)piperazin-1-yl)piperidin-1-yl)-2,6-difluorophenyl)piperidine-2,6-dione]
DC50 [1]: 16.1 nM | Dmax [1]: 92.2% | DC50 [2]: 0.986 nM | Dmax (%) H1975 # 28 DTC [2]: 68.67%

CCc1cc(Nc2ncc(Br)c(Nc3ccc4nc(C)ccc4c3P(C)(C)=O)n2)c(OC)cc1N1CCC(N2CCN(CCC3CCN(c4cc(F)c(C5CCC(=O)NC5=O)c(F)c4)CC3)C(=O)C2)CC1 (centres unmarked) [Example 695, 3-(4-(4-(2-(4-(1-(4-((5-bromo-4-((5-(dimethylphosphoryl)-2-methylquinolin-6-yl)amino)pyrimidin-2-yl)amino)-2-ethyl-5-methoxyphenyl)piperidin-4-yl)-2-oxopiperazin-1-yl)ethyl)piperidin-1-yl)-2,6-difluorophenyl)piperidine-2,6-dione]
DC50 [1]: 12.7 nM | Dmax [1]: 93.5% | DC50 [2]: 3.06 nM | Dmax (%) H1975 # 28 DTC [2]: 68.81%

CCc1cc(Nc2ncc(Br)c(Nc3ccc4nc(CO)ccc4c3P(C)(C)=O)n2)c(OC)cc1N1CCC(N2CCN(C(=O)[C@@H]3CCN(c4cc(F)c(C5CCC(=O)NC5=O)c(F)c4)C3)CC2)CC1 (stereo partly drawn) [Example 696, 3-(4-((R)-3-(4-(1-(4-((5-bromo-4-((5-(dimethylphosphoryl)-2-(hydroxymethyl)quinolin-6-yl)amino)pyrimidin-2-yl)amino)-2-ethyl-5-methoxyphenyl)piperidin-4-yl)piperazine-1-carbonyl)pyrrolidin-1-yl)-2,6-difluorophenyl)piperidine-2,6-dione]
DC50 [1]: 4.53 nM | Dmax [1]: 92.3% | DC50 [2]: 0.647 nM | Dmax (%) H1975 # 28 DTC [2]: 75.49%

CCc1cc(Nc2ncc(Br)c(Nc3ccc4nc(C)ccc4c3P(C)(C)=O)n2)c(OC)cc1N1CCC(N2CCN(C(=O)Cc3cccc4c3n(C)c(=O)n4C3CCC(=O)NC3=O)CC2)CC1 (centres unmarked) [Example 697, 3-(4-(2-(4-(1-(4-((5-bromo-4-((5-(dimethylphosphoryl)-2-methylquinolin-6-yl)amino)pyrimidin-2-yl)amino)-2-ethyl-5-methoxyphenyl)piperidin-4-yl)piperazin-1-yl)-2-oxoethyl)-3-methyl-2-oxo-2,3-dihydro-1H-benzo[d]imidazol-1-yl)piperidine-2,6-dione]
DC50 [1]: 9.65 nM | Dmax [1]: 94.1% | DC50 [2]: 1.19 nM | Dmax (%) H1975 # 28 DTC [2]: 71.39%

CCOc1cc(N2CCC(N3CCN(CCc4c(C(F)(F)F)ccc5c4oc(=O)n5C4CCC(=O)NC4=O)CC3)CC2)c(CC)cc1Nc1ncc(Br)c(Nc2ccc3nc(CC)ccc3c2P(C)(C)=O)n1 (centres unmarked) [Example 724, 3-(7-(2-(4-(1-(4-((5-bromo-4-((5-(dimethylphosphoryl)-2-ethylquinolin-6-yl)amino)pyrimidin-2-yl)amino)-5-ethoxy-2-ethylphenyl)piperidin-4-yl)piperazin-1-yl)ethyl)-2-oxo-6-(trifluoromethyl)benzo[d]oxazol-3(2H)-yl)piperidine-2,6-dione]
DC50 [1]: 55.1 nM | Dmax [1]: 85.6% | DC50 [2]: 2.86 nM | Dmax (%) H1975 # 28 DTC [2]: 75.94%

CCOc1cc(N2CCC(N3CCN(CCCc4cc(Cl)cc5c4oc(=O)n5C4CCC(=O)NC4=O)CC3)CC2)c(CC)cc1Nc1ncc(Br)c(Nc2ccc3nc(CC)ccc3c2P(C)(C)=O)n1 (centres unmarked) [Example 726, 3-(7-(3-(4-(1-(4-((5-bromo-4-((5-(dimethylphosphoryl)-2-ethylquinolin-6-yl)amino)pyrimidin-2-yl)amino)-5-ethoxy-2-ethylphenyl)piperidin-4-yl)piperazin-1-yl)propyl)-5-chloro-2-oxobenzo[d]oxazol-3(2H)-yl)piperidine-2,6-dione]
DC50 [1]: 7.11 nM | Dmax [1]: 96.7% | DC50 [2]: 1.46 nM | Dmax (%) H1975 # 28 DTC [2]: 74.13%

CCOc1cc(N2CCC(N3CCN(C(=O)[C@H]4CN(c5cc(F)c([C@H]6CCC(=O)NC6=O)c(F)c5)CC4(C)C)CC3)CC2)c(C)cc1Nc1ncc(Br)c(Nc2ccc3nc(C)ccc3c2P(C)(C)=O)n1 [Example 727, (R)-3-(4-((R)-4-(4-(1-(4-((5-bromo-4-((5-(dimethylphosphoryl)-2-methylquinolin-6-yl)amino)pyrimidin-2-yl)amino)-5-ethoxy-2-methylphenyl)piperidin-4-yl)piperazine-1-carbonyl)-3,3-dimethylpyrrolidin-1-yl)-2,6-difluorophenyl)piperidine-2,6-dione]
DC50 [1]: 8.61 nM | DC50 [2]: 4.29 nM | Dmax (%) H1975 # 28 DTC [2]: 77.39%

CCOc1cc(N2CCC(N3CCN(CCc4cc(F)c([C@H]5CCC(=O)NC5=O)c(F)c4)CC3)CC2)c(CC)cc1Nc1ncc(Br)c(Nc2ccc3nc(C)c(F)cc3c2P(C)(C)=O)n1 [Example 728, (R)-3-(4-(2-(4-(1-(4-((5-bromo-4-((5-(dimethylphosphoryl)-3-fluoro-2-methylquinolin-6-yl)amino)pyrimidin-2-yl)amino)-5-ethoxy-2-ethylphenyl)piperidin-4-yl)piperazin-1-yl)ethyl)-2,6-difluorophenyl)piperidine-2,6-dione]
DC50 [1]: 9.14 nM | DC50 [2]: 0.803 nM | Dmax (%) H1975 # 28 DTC [2]: 87.57%

COc1cc(N2CCC(N3CCN(C(=O)[C@H]4CN(c5cc(F)c([C@H]6CCC(=O)NC6=O)c(F)c5)CC4(C)C)CC3)CC2)c(C)cc1Nc1ncc(Br)c(Nc2ccc3nc(C)c(F)cc3c2P(C)(C)=O)n1 [Example 729, (R)-3-(4-((R)-4-(4-(1-(4-((5-bromo-4-((5-(dimethylphosphoryl)-3-fluoro-2-methylquinolin-6-yl)amino)pyrimidin-2-yl)amino)-5-methoxy-2-methylphenyl)piperidin-4-yl)piperazine-1-carbonyl)-3,3-dimethylpyrrolidin-1-yl)-2,6-difluorophenyl)piperidine-2,6-dione]
DC50 [1]: 5.59 nM | DC50 [2]: 1.13 nM | Dmax (%) H1975 # 28 DTC [2]: 88.94%

CCOc1cc(N2CCC(N3CCN(CCc4cc(F)c([C@H]5CCC(=O)NC5=O)c(F)c4)CC3)CC2)c(CC)cc1Nc1ncc(Cl)c(Nc2cc(F)c3nc(CC)ccc3c2P(C)(C)=O)n1 [Example 730, (R)-3-(4-(2-(4-(1-(4-((5-chloro-4-((5-(dimethylphosphoryl)-2-ethyl-8-fluoroquinolin-6-yl)amino)pyrimidin-2-yl)amino)-5-ethoxy-2-ethylphenyl)piperidin-4-yl)piperazin-1-yl)ethyl)-2,6-difluorophenyl)piperidine-2,6-dione]
DC50 [1]: 81.1 nM | DC50 [2]: 8.9 nM | Dmax (%) H1975 # 28 DTC [2]: 81.41%

CCOc1cc(N2CCC(N3CCN(CCc4c(F)cc(F)c5c4oc(=O)n5C4CCC(=O)NC4=O)CC3)CC2)c(CC)cc1Nc1ncc(Br)c(Nc2ccc3nc(CC)ccc3c2P(C)(C)=O)n1 (centres unmarked) [Example 731, 3-(7-(2-(4-(1-(4-((5-bromo-4-((5-(dimethylphosphoryl)-2-ethylquinolin-6-yl)amino)pyrimidin-2-yl)amino)-5-ethoxy-2-ethylphenyl)piperidin-4-yl)piperazin-1-yl)ethyl)-4,6-difluoro-2-oxobenzo[d]oxazol-3(2H)-yl)piperidine-2,6-dione]
DC50 [1]: 42.5 nM | DC50 [2]: 4.55 nM | Dmax (%) H1975 # 28 DTC [2]: 93.44%

COc1cc(N2CCC(N3CCN(C(=O)[C@@H]4CCN(c5cc(F)c([C@H]6CCC(=O)NC6=O)c(F)c5)C4)CC3)CC2)c(C)cc1Nc1ncc(Br)c(Nc2ccc3nc(C)c(F)cc3c2P(C)(C)=O)n1 [Example 732, (R)-3-(4-((R)-3-(4-(1-(4-((5-bromo-4-((5-(dimethylphosphoryl)-3-fluoro-2-methylquinolin-6-yl)amino)pyrimidin-2-yl)amino)-5-methoxy-2-methylphenyl)piperidin-4-yl)piperazine-1-carbonyl)pyrrolidin-1-yl)-2,6-difluorophenyl)piperidine-2,6-dione]
DC50 [1]: 4.07 nM | DC50 [2]: 0.624 nM | Dmax (%) H1975 # 28 DTC [2]: 86.49%
